Data taken from patent US9476099B2 (TRUSTEES OF DARTMOUTH COLLEGE, priority 2012, dated 2016).

Tested on: gene promoters in NT2/D1-R1 control and DNMT3B knockdown cells
Experiment: Genome-wide promoter methylation analysis, HumanMethylation27 BeadChip (Table 15)
Assay type: cell-based, human
Details: sh-ctrl + 5aza
Procedure: DNA methylation analysis was performed in samples in triplicate using the […] […] assay with the HumanMethylation27 BeadChip ([…]) and the BeadChip was scanned on the BeadArray Reader ([…]), according to the manufacturer's instructions. Raw data was normalized and analyzed with Genome Studio software ([…]). The HumanMethylation27 BeadChip assays 27,578 CpGs covering more than 14,000 genes, mostly from promoter regions. […] Hierarchical clustering was performed as stated above. HumanMethylation27 BeadChip data and gene expression microarray data were submitted to NCBI GEO.

SMILES: Nc1ncn([C@H]2C[C@H](O)[C@@H](CO)O2)c(=O)n1 [5aza]
- SERPING1 cg12783776 promoter methylation Mean: 0.601
- SFRS16 cg19317638 promoter methylation Mean: 0.560
- SFXN3 cg04880063 promoter methylation Mean: 0.170
- SH3BGRL2 cg03080985 promoter methylation Mean: 0.398
- SHH cg25167838 promoter methylation Mean: 0.175
- SKIP cg04072323 promoter methylation Mean: 0.432
- SLC30A2 cg05674944 promoter methylation Mean: 0.658
- SMCP cg09542291 promoter methylation Mean: 0.705
- SNX9 cg26845300 promoter methylation Mean: 0.985
- SOX17 cg21226224 promoter methylation Mean: 0.858
- SPRR1B cg24884084 promoter methylation Mean: 0.488
- SSH1 cg11747499 promoter methylation Mean: 0.529
- SSTR1 cg27590397 promoter methylation Mean: 1.209
- TAC1 cg07550362 promoter methylation Mean: 0.798
- TADA3L cg09279263 promoter methylation Mean: 0.445
- TERT cg02545192 promoter methylation Mean: 0.547
- TNFSF10 cg16555388 promoter methylation Mean: 0.687
- TNRC4 cg26093148 promoter methylation Mean: 0.866
- TNRC15 cg07230446 promoter methylation Mean: 0.425
- TRAF3 cg24165760 promoter methylation Mean: 0.878
- TRIM2 cg12793610 promoter methylation Mean: 0.815
- TRIM36 cg10693071 promoter methylation Mean: 0.822
- TRPM3 cg20555507 promoter methylation Mean: 0.413
- UNC5D cg00297600 promoter methylation Mean: 0.612
- WDR13 cg25053301 promoter methylation Mean: 0.317
- ZFHX1B cg15377518 promoter methylation Mean: 0.680
- ZNF222 cg09757277 promoter methylation Mean: 0.431
- cg07512517 promoter methylation Mean: 0.619
- Mean promoter methylation, ABCA3 cg02331561 (NT2/D1-R1 control cells): 0.189
- Mean promoter methylation, ABLIM3 cg05026186 (NT2/D1-R1 control cells): 0.365
- Mean promoter methylation, ACTL6B cg08572611 (NT2/D1-R1 control cells): 0.210
- Mean promoter methylation, ANKRD46 cg23737055 (NT2/D1-R1 control cells): 0.329
- Mean promoter methylation, ARNT2 cg17788682 (NT2/D1-R1 control cells): 0.212
- Mean promoter methylation, B4GALNT3 cg05769161 (NT2/D1-R1 control cells): 0.577
- Mean promoter methylation, BTBD1 cg16958189 (NT2/D1-R1 control cells): 0.392
- Mean promoter methylation, C1RL cg22593785 (NT2/D1-R1 control cells): 0.347
- Mean promoter methylation, C10orf10 cg17186163 (NT2/D1-R1 control cells): 0.371
- Mean promoter methylation, C10orf72 cg02569613 (NT2/D1-R1 control cells): 0.553
- Mean promoter methylation, C12orf34 cg01335367 (NT2/D1-R1 control cells): 0.987
- Mean promoter methylation, C17orf40 cg18042079 (NT2/D1-R1 control cells): 0.207
- Mean promoter methylation, C19orf30 cg07456645 (NT2/D1-R1 control cells): 0.552
- Mean promoter methylation, C20orf29 cg09158909 (NT2/D1-R1 control cells): 0.322
- Mean promoter methylation, C22orf9 cg11221513 (NT2/D1-R1 control cells): 0.402
- Mean promoter methylation, CACNA1G cg18454685 (NT2/D1-R1 control cells): 0.587
- Mean promoter methylation, CAMKK2 cg01369981 (NT2/D1-R1 control cells): 0.344
- Mean promoter methylation, CART cg23300372 (NT2/D1-R1 control cells): 0.445
- Mean promoter methylation, CCKBR cg13346411 (NT2/D1-R1 control cells): 0.411
- Mean promoter methylation, CDC42EP1 cg13951472 (NT2/D1-R1 control cells): 0.342
- Mean promoter methylation, CDKN2A cg10895543 (NT2/D1-R1 control cells): 0.249
- Mean promoter methylation, CHST8 cg24739326 (NT2/D1-R1 control cells): 0.660
- Mean promoter methylation, CPSF1 cg20326853 (NT2/D1-R1 control cells): 0.408
- Mean promoter methylation, CSMD1 cg22619018 (NT2/D1-R1 control cells): 0.365
- Mean promoter methylation, DCTN3 cg22579849 (NT2/D1-R1 control cells): 0.613
- Mean promoter methylation, DDX42 cg05797656 (NT2/D1-R1 control cells): 0.226
- Mean promoter methylation, DGKD cg25506396 (NT2/D1-R1 control cells): 0.238
- Mean promoter methylation, DGKI cg06277657 (NT2/D1-R1 control cells): 0.365
- Mean promoter methylation, DKK2 cg01404615 (NT2/D1-R1 control cells): 0.819
- Mean promoter methylation, DUSP8 cg02271621 (NT2/D1-R1 control cells): 0.296
- Mean promoter methylation, EHD2 cg12603043 (NT2/D1-R1 control cells): 0.398
- Mean promoter methylation, ELK1 cg21860846 (NT2/D1-R1 control cells): 0.343
- Mean promoter methylation, EMP3 cg01795122 (NT2/D1-R1 control cells): 0.187
- Mean promoter methylation, EYA4 cg01805282 (NT2/D1-R1 control cells): 0.360
- Mean promoter methylation, FAM70B cg15350194 (NT2/D1-R1 control cells): 0.396
- Mean promoter methylation, FAM73B cg00729541 (NT2/D1-R1 control cells): 0.365
- Mean promoter methylation, FCHSD2 cg17114257 (NT2/D1-R1 control cells): 0.423
- Mean promoter methylation, FLJ20273 cg01704534 (NT2/D1-R1 control cells): 0.410
- Mean promoter methylation, FLJ20273 cg15967525 (NT2/D1-R1 control cells): 0.759
- Mean promoter methylation, FLJ42486 cg03734874 (NT2/D1-R1 control cells): 0.711
- Mean promoter methylation, GAB3 cg12938998 (NT2/D1-R1 control cells): 0.347
- Mean promoter methylation, GALR1 cg04534765 (NT2/D1-R1 control cells): 0.440
- Mean promoter methylation, GCN5L2 cg08434547 (NT2/D1-R1 control cells): 0.555
- Mean promoter methylation, GNAS cg00943909 (NT2/D1-R1 control cells): 0.621
- Mean promoter methylation, HBQ1 cg07703401 (NT2/D1-R1 control cells): 0.587
- Mean promoter methylation, HCN1 cg11285003 (NT2/D1-R1 control cells): 0.369
- Mean promoter methylation, HES6 cg24127874 (NT2/D1-R1 control cells): 0.763
- Mean promoter methylation, HEYL cg25462291 (NT2/D1-R1 control cells): 0.576
- Mean promoter methylation, HRH3 cg08186362 (NT2/D1-R1 control cells): 0.666
- Mean promoter methylation, ICAM1 cg22874046 (NT2/D1-R1 control cells): 0.349
- Mean promoter methylation, ID2 cg23525180 (NT2/D1-R1 control cells): 0.576
- Mean promoter methylation, IGFBP3 cg04796162 (NT2/D1-R1 control cells): 0.501
- Mean promoter methylation, KATNB1 cg15153383 (NT2/D1-R1 control cells): 0.474
- Mean promoter methylation, KCNAB1 cg23873703 (NT2/D1-R1 control cells): 0.548
- Mean promoter methylation, KCNC2 cg18573383 (NT2/D1-R1 control cells): 0.277
- Mean promoter methylation, KIAA1822 cg02867079 (NT2/D1-R1 control cells): 0.842
- Mean promoter methylation, KIAA1840 cg06121469 (NT2/D1-R1 control cells): 0.365
- Mean promoter methylation, KRTCAP2 cg11278262 (NT2/D1-R1 control cells): 0.432
- Mean promoter methylation, LGALS1 cg00292662 (NT2/D1-R1 control cells): 0.493
- Mean promoter methylation, LGR6 cg23578193 (NT2/D1-R1 control cells): 0.423
- Mean promoter methylation, LOX cg06508445 (NT2/D1-R1 control cells): 0.190
- Mean promoter methylation, MAP6D1 cg03705396 (NT2/D1-R1 control cells): 0.522
- Mean promoter methylation, MGC9850 cg21097640 (NT2/D1-R1 control cells): 0.292
- Mean promoter methylation, MRPL38 cg11653266 (NT2/D1-R1 control cells): 0.224
- Mean promoter methylation, MT cg14078309 (NT2/D1-R1 control cells): 0.213
- Mean promoter methylation, MYOD1 cg18555440 (NT2/D1-R1 control cells): 0.561
- Mean promoter methylation, OGG1 cg25415932 (NT2/D1-R1 control cells): 0.526
- Mean promoter methylation, OR10J1 cg25076881 (NT2/D1-R1 control cells): 0.576
- Mean promoter methylation, OSTbeta cg16029760 (NT2/D1-R1 control cells): 0.344
- Mean promoter methylation, PABPC4 cg12585282 (NT2/D1-R1 control cells): 0.296
- Mean promoter methylation, PDE8B cg18089852 (NT2/D1-R1 control cells): 0.203
- Mean promoter methylation, PHLDA2 cg01263716 (NT2/D1-R1 control cells): 0.504
- Mean promoter methylation, PHLDA2 cg04720330 (NT2/D1-R1 control cells): 0.379
- Mean promoter methylation, PIB5PA cg18053607 (NT2/D1-R1 control cells): 0.403
- Mean promoter methylation, PLOD1 cg23286660 (NT2/D1-R1 control cells): 0.468
- Mean promoter methylation, PPCDC cg11632617 (NT2/D1-R1 control cells): 0.523
- Mean promoter methylation, PRDM12 cg09191327 (NT2/D1-R1 control cells): 0.457
- Mean promoter methylation, PRMT8 cg23739862 (NT2/D1-R1 control cells): 0.125
- Mean promoter methylation, PTPRO cg19402885 (NT2/D1-R1 control cells): 0.671
- Mean promoter methylation, PTPRO cg27196745 (NT2/D1-R1 control cells): 0.570
- Mean promoter methylation, R3HDML cg17692403 (NT2/D1-R1 control cells): 0.529
- Mean promoter methylation, RAB37 cg12448933 (NT2/D1-R1 control cells): 0.483
- Mean promoter methylation, RASA4 cg05749161 (NT2/D1-R1 control cells): 0.157
- Mean promoter methylation, RASL11A cg06611744 (NT2/D1-R1 control cells): 0.348
- Mean promoter methylation, SCAMP3 cg01745448 (NT2/D1-R1 control cells): 0.308
- Mean promoter methylation, SCARA5 cg10171125 (NT2/D1-R1 control cells): 0.408
- Mean promoter methylation, SEC14L2 cg14452140 (NT2/D1-R1 control cells): 0.705
- Mean promoter methylation, SH3BGRL3 cg03100146 (NT2/D1-R1 control cells): 0.661
- Mean promoter methylation, SHH cg00577464 (NT2/D1-R1 control cells): 0.433
- Mean promoter methylation, SLC6A5 cg20632573 (NT2/D1-R1 control cells): 0.291
- Mean promoter methylation, SLC25A22 cg02973416 (NT2/D1-R1 control cells): 0.702
- Mean promoter methylation, SLC35C2 cg02413850 (NT2/D1-R1 control cells): 0.254
- Mean promoter methylation, SLIT1 cg07143898 (NT2/D1-R1 control cells): 0.325
- Mean promoter methylation, SORCS3 cg16787600 (NT2/D1-R1 control cells): 0.786
- Mean promoter methylation, SOX15 cg01029592 (NT2/D1-R1 control cells): 0.276
- Mean promoter methylation, SOX15 cg13098960 (NT2/D1-R1 control cells): 0.472
- Mean promoter methylation, SOX17 cg02919422 (NT2/D1-R1 control cells): 0.617
- Mean promoter methylation, STXBP3 cg11666924 (NT2/D1-R1 control cells): 0.260
- Mean promoter methylation, SUSD2 cg23349242 (NT2/D1-R1 control cells): 0.631
- Mean promoter methylation, TBXA2R cg09998229 (NT2/D1-R1 control cells): 0.659
- Mean promoter methylation, THAP3 cg11688219 (NT2/D1-R1 control cells): 0.581
- Mean promoter methylation, TMEM25 cg20001829 (NT2/D1-R1 control cells): 0.424
- Mean promoter methylation, TMEM106C cg25884854 (NT2/D1-R1 control cells): 0.482
- Mean promoter methylation, TRAPPC1 cg01667702 (NT2/D1-R1 control cells): 0.471
- Mean promoter methylation, UBA52 cg24356797 (NT2/D1-R1 control cells): 0.192
- Mean promoter methylation, UNQ2446 cg10574499 (NT2/D1-R1 control cells): 0.619
- Mean promoter methylation, VPREB1 cg18441959 (NT2/D1-R1 control cells): 0.524
- Mean promoter methylation, ZGPAT cg04078896 (NT2/D1-R1 control cells): 0.308
- Mean promoter methylation, ZGPAT cg18611245 (NT2/D1-R1 control cells): 0.736
- Mean promoter methylation, ZNF585B cg03751813 (NT2/D1-R1 control cells): 0.392
- Mean promoter methylation, ZNF702 cg07559730 (NT2/D1-R1 control cells): 0.457
